According to patent US20170334899A1, “AMINO-SUBSTITUTED ISOTHIAZOLES” (Bayer Pharma Aktiengesellschaft, priority 2014, published 2017):

Key:
Format in all cases: cell-based
HeLa = assay: Proliferation assay (crystal violet), HeLa; conditions: Homo sapiens, HeLa, 96 h, HeLa cells; 4 days incubation; crystal violet staining; read-out: IC50 inhibition of proliferation, HeLa
In short: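 Absorbance at 595 nm of crystal-violet-stained cells after 4 days' exposure to 0.001–10 μM compound (0.5% DMSO). Values normalized to a day-0 plate (0%) and untreated cells (100%); IC50 by 4-parameter fit.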

HeLa-MaTu-ADR = assay: Proliferation assay (crystal violet), HeLa-MaTu-ADR; conditions: 96 h; HeLa-MaTu-ADR cells; 4 days incubation; crystal violet staining; read-out: IC50 inhibition of proliferation, HeLa-MaTu-ADR
Description: (§1) Cultivated tumor cells (cells were ordered from ATCC, except HeLa-MaTu and HeLa-MaTu-ADR, which were ordered from EPO-GmbH, Berlin) were plated at a density of 1000 to 5000 cells/well, depending on the growth rate of the respective cell line, in a 96-well multititer plate in 200 μL of their respective growth medium supplemented 10% fetal calf serum. After 24 hours, the cells of one plate (zero-point plate) were stained with crystal violet (see below), while the medium of the other plates was replaced by fresh culture medium (200 μl), to which the test substances were added in various concentrations (0 μM, as well as in the range of 0.001-10 μM; the final concentration of the solvent dimethyl sulfoxide was 0.5%). The cells were incubated for 4 days in the presence of test substances. Cell proliferation was determined by staining the cells with crystal violet: the cells were fixed by adding 20 μl/measuring point of an 11% glutaric aldehyde solution for 15 minutes at room temperature. After three washing cycles of the fixed cells with water, the plates were dried at room temperature. The cells were stained by adding 100 μl/measuring point of a 0.1% crystal violet solution (pH 3.0). After three washing cycles of the stained cells with water, the plates were dried at room temperature. The dye was dissolved by adding 100 μl/measuring point of a 10% acetic acid solution. Absorbtion was determined by photometry at a wavelength of 595 nm. The change of cell number, in percent, was calculated by normalization of the measured values to the aborbtion values of the zero-point plate (=0%) and the absorbtion of the untreated (0 μm) cells (=100%). The IC50 values were determined by means of a 4 parameter fit.

NCI-H460 = assay: Proliferation assay (crystal violet), NCI-H460; conditions: Homo sapiens, 96 h; NCI-H460 cells; 4 days incubation; crystal violet staining; read-out: IC50 inhibition of proliferation, NCI-H460
Description: as §1

DU145 = assay: Proliferation assay (crystal violet), DU145; conditions: Homo sapiens, DU-145, 96 h; DU145 cells; 4 days incubation; crystal violet staining; read-out: IC50 inhibition of proliferation, DU145
Description: as §1

Caco-2 = assay: Proliferation assay (crystal violet), Caco-2; conditions: Homo sapiens, 96 h; Caco-2 cells; 4 days incubation; crystal violet staining; read-out: IC50 inhibition of proliferation, Caco2
Description: as §1

B16F10 = assay: Proliferation assay (crystal violet), B16F10; conditions: Mus musculus, B16-F10, 96 h; B16F10 cells; 4 days incubation; crystal violet staining; read-out: IC50 inhibition of proliferation, B16F10
Description: as §1

In the case of `Cc1nsc(Nc2cncc(C(F)(F)F)n2)c1C(=O)Nc1ccc(OC2CCN(CC(F)(F)F)CC2)nc1` [Example 16, 3-Methyl-N-(6-{[1-(2,2,2-trifluoroethyl)piperidin-4-yl]oxy}pyridin-3-yl)-5-{[6-(trifluoromethyl)pyrazin-2-yl]amino}-1,2-thiazole-4-carboxamide], the IC50 (HeLa) is reported as 690 nM, the IC50 (HeLa-MaTu-ADR) is reported as 290 nM and the IC50 (NCI-H460) is reported as 150 nM. The IC50 (DU145) was 720 nM, the IC50 (Caco-2) was 240 nM and the IC50 (B16F10) was 290 nM.
Molecule `Cc1nsc(Nc2cnc3ccccc3n2)c1C(=O)Nc1ccc(OC2CCN(C(=O)OC(C)(C)C)CC2)nc1` [Example 18, tert-Butyl 4-{[5-({[3-methyl-5-(quinoxalin-2-ylamino)-1,2-thiazol-4-yl]carbonyl}-amino)pyridin-2-yl]oxy}piperidine-1-carboxylate] has an IC50 (HeLa) of 1200 nM, an IC50 (HeLa-MaTu-ADR) of 380 nM and an IC50 (NCI-H460) of 640 nM. For the same molecule, the IC50 (DU145) was 910 nM, the IC50 (Caco-2) was 270 nM and the IC50 (B16F10) was 550 nM.
`Cc1nsc(Nc2cnc3ccccc3n2)c1C(=O)Nc1ccc(NC2CCN(C(=O)OC(C)(C)C)CC2)nc1` [Example 234, tert-butyl 4-{[5-({[3-methyl-5-(quinoxalin-2-ylamino)-1,2-thiazol-4-yl]carbonyl}amino)pyridin-2-yl]amino}piperidine-1-carboxylate] showed an IC50 (HeLa) of 9600 nM.
For `COc1ccc(NC(=O)c2c(C)nsc2Nc2cnc3ccccc3n2)c(CC#N)n1` [Example 235, N-[2-(cyanomethyl)-6-methoxypyridin-3-yl]-3-methyl-5-(quinoxalin-2-ylamino)-1,2-thiazole-4-carboxamide], the IC50 (HeLa) was 2100 nM.
Work on `Cc1nsc(Nc2cnc3ccccc3n2)c1C(=O)Nc1ccc(NCCC(=O)OC(C)(C)C)nc1` [Example 236, tert-butyl N-[5-({[3-methyl-5-(quinoxalin-2-ylamino)-1,2-thiazol-4-yl]carbonyl}amino)pyridin-2-yl]-beta-alaninate] yielded an IC50 (HeLa) of 4100 nM.
`COC(=O)c1cc(NC(=O)c2c(C)nsc2Nc2cnc3ccccc3n2)cc(C(=O)OC)c1` [Example 237, dimethyl 5-({[3-methyl-5-(quinoxalin-2-ylamino)-1,2-thiazol-4-yl]carbonyl}amino)isophthalate] was tested, and the IC50 (HeLa) was greater than 10000 nM.
In the case of `Cc1nsc(Nc2cnc3ccccc3n2)c1C(=O)Nc1ccc(NCC2CCN(C(=O)OC(C)(C)C)CC2)nc1` [Example 238, tert-butyl 4-({[5-({[3-methyl-5-(quinoxalin-2-ylamino)-1,2-thiazol-4-yl]carbonyl}amino)pyridin-2-yl]amino}methyl)piperidine-1-carboxylate], the IC50 (HeLa) is reported as 8100 nM.
`Cc1nsc(Nc2cc(C#N)ccn2)c1C(=O)Nc1cccc(C(=O)OC(C)(C)C)c1` [Example 239, tert-butyl 3-[({5-[(4-cyanopyridin-2-yl)amino]-3-methyl-1,2-thiazol-4-yl}carbonyl)amino]benzoate] showed an IC50 (HeLa) of 1100 nM.
In the case of `Cc1nsc(Nc2ccc(C#N)cn2)c1C(=O)Nc1cccc(C(=O)OC(C)(C)C)c1` [Example 240, tert-butyl 3-[({5-[(5-cyanopyridin-2-yl)amino]-3-methyl-1,2-thiazol-4-yl}carbonyl)amino]benzoate], the IC50 (HeLa) is reported as 750 nM.
`Cc1nsc(Nc2cnc3ccccc3n2)c1C(=O)Nc1ccc(NC2CCCN(C(=O)OC(C)(C)C)C2)nc1` (centres unmarked) [Example 241, tert-butyl 3-{[5-({[3-methyl-5-(quinoxalin-2-ylamino)-1,2-thiazol-4-yl]carbonyl}amino)pyridin-2-yl]amino}piperidine-1-carboxylate] showed an IC50 (HeLa) of 9300 nM.
`Cc1nsc(Nc2cc(C#N)ccn2)c1C(=O)Nc1ccc(NC2CCCNC2)nc1` (centres unmarked) [Example 242, 5-[(4-cyanopyridin-2-yl)amino]-3-methyl-N-[6-(piperidin-3-ylamino)pyridin-3-yl]-1,2-thiazole-4-carboxamide] gave an IC50 (HeLa) greater than 10000 nM.
In the case of `Cc1cc(C)n(-c2ccccc2NC(=O)c2c(C)nsc2Nc2cnc3ccccc3n2)n1` [Example 243, N-[2-(3,5-dimethyl-1H-pyrazol-1-yl)phenyl]-3-methyl-5-(quinoxalin-2-ylamino)-1,2-thiazole-4-carboxamide], the IC50 (HeLa) is reported as greater than 10000 nM.
`Cc1nsc(Nc2cnc3ccccc3n2)c1C(=O)Nc1ccc(NCCNC(=O)OC(C)(C)C)nc1` [Example 244, tert-butyl (2-{[5-({[3-methyl-5-(quinoxalin-2-ylamino)-1,2-thiazol-4-yl]carbonyl}amino)pyridin-2-yl]amino}ethyl)carbamate] was tested, and the IC50 (HeLa) was 4200 nM.
Molecule `Cc1nsc(Nc2cnc3ccccc3n2)c1C(=O)Nc1ccc(Nc2ccc(F)c(F)c2)nc1` [Example 245, N-{6-[(3,4-difluorophenyl)amino]pyridin-3-yl}-3-methyl-5-(quinoxalin-2-ylamino)-1,2-thiazole-4-carboxamide] has an IC50 (HeLa) of 9900 nM.
Molecule `Cc1nsc(Nc2ccc(C#N)cn2)c1C(=O)Nc1ccc(S(C)(=O)=O)cc1` [Example 246, 5-[(5-cyanopyridin-2-yl)amino]-3-methyl-N-[4-(methylsulfonyl)phenyl]-1,2-thiazole-4-carboxamide] has an IC50 (HeLa) of 7300 nM.
Molecule `CCN(CC)CCNC(=O)c1cccc(NC(=O)c2c(C)nsc2Nc2cnccn2)c1` [Example 247, N-(3-{[2-(diethylamino)ethyl]carbamoyl}phenyl)-3-methyl-5-(pyrazin-2-ylamino)-1,2-thiazole-4-carboxamide] has an IC50 (HeLa) greater than 10000 nM.
